System: lactic acid bacteria strains
Experiment: Growth of lactic acid bacteria strains on media containing selenate or selenite
Type: cell-based, lactic acid bacteria from gastrointestinal tracts of chicken
Details: 250 ppm in media
Procedure: Putative strains of LAB were grown on MRS agar plates containing various concentrations of selenate and selenite.

Structure (SMILES) | Number of lactic acid bacteria strains grown (percentage of bacterial cells that grew) (incubation time 12 h) [percentage] | Number of lactic acid bacteria strains grown (percentage of bacterial cells that grew) (incubation time 24 h) [percentage] | Number of lactic acid bacteria strains grown (percentage of bacterial cells that grew) (incubation time 48 h) [percentage] | Number of lactic acid bacteria strains grown (percentage of bacterial cells that grew) (incubation time >48 h) [percentage]
O=[Se](=O)([O-])[O-].[Na+].[Na+] [Selenate, sodium selenate] | 75.3 | 14.4 | 10.3 | 0
O=[Se](O)O [Selenite, sodium selenite] | 62.9 | 2.1 | 24.7 | 10.3

— patent US20070077238A1, “Production of organic and inorganic selenium compounds by lactic acid bacteria” (priority 2005, published 2007)
